Data as given in PubChem BioAssay AID1963982 (Molecular Pharmacology Branch, DTP, NCI, 2024).
Several values for one entry are separate records, joined by “and”; a condition that tells them apart may be missing. Equal entries are not always repeated.

System: 313798-341-R-J2-PDC spheroids, viability
Experiment: Anticancer human tumor 313798-341-R-J2-PDC patient-derived cervical squamous cell carcinoma cell line growth inhibition [PI3K]
Conditions: spheroids with HUVEC and MSC; for viability, T/C: stronger effect = lower value
Procedure, shortened: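 Combination activity was assessed by viability in multicellular tumor spheroids carrying HUVEC and MSC components. Agents were tested with PI3K inhibitors from a Cmax-based top dose (or 10 microM) downward in half-log increments.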

[1] = curve of first compound, second compound 0.0316 µM
[2] = curve of first compound, second compound 0.1 µM
[3] = curve of first compound, second compound 0.316 µM
[4] = curve of first compound, second compound 1 µM
[5] = curve of first compound, second compound 3.16 µM
[6] = curve of first compound, second compound 10 µM
[7] = second compound 0.0316 µM, first compound 0.0316 µM
[8] = second compound 0.0316 µM, first compound 0.1 µM
[9] = second compound 0.0316 µM, first compound 0.316 µM
[10] = second compound 0.0316 µM, first compound 1 µM
[11] = second compound 0.0316 µM, first compound 3.16 µM
[12] = second compound 0.0316 µM, first compound 10 µM
[13] = second compound 0.1 µM, first compound 0.0316 µM
[14] = second compound 0.1 µM, first compound 0.1 µM
[15] = second compound 0.1 µM, first compound 0.316 µM
[16] = second compound 0.1 µM, first compound 1 µM
[17] = second compound 0.1 µM, first compound 3.16 µM
[18] = second compound 0.1 µM, first compound 10 µM
[19] = second compound 0.316 µM, first compound 0.0316 µM
[20] = second compound 0.316 µM, first compound 0.1 µM
[21] = second compound 0.316 µM, first compound 0.316 µM
[22] = second compound 0.316 µM, first compound 1 µM
[23] = second compound 0.316 µM, first compound 3.16 µM
[24] = second compound 0.316 µM, first compound 10 µM
[25] = second compound 1 µM, first compound 0.0316 µM
[26] = second compound 1 µM, first compound 0.1 µM
[27] = second compound 1 µM, first compound 0.316 µM
[28] = second compound 1 µM, first compound 1 µM
[29] = second compound 1 µM, first compound 3.16 µM
[30] = second compound 1 µM, first compound 10 µM
[31] = second compound 3.16 µM, first compound 0.0316 µM
[32] = second compound 3.16 µM, first compound 0.1 µM
[33] = second compound 3.16 µM, first compound 0.316 µM
[34] = second compound 3.16 µM, first compound 1 µM
[35] = second compound 3.16 µM, first compound 3.16 µM
[36] = second compound 3.16 µM, first compound 10 µM
[37] = second compound 10 µM, first compound 0.0316 µM
[38] = second compound 10 µM, first compound 0.1 µM
[39] = second compound 10 µM, first compound 0.316 µM
[40] = second compound 10 µM, first compound 1 µM
[41] = second compound 10 µM, first compound 3.16 µM
[42] = second compound 10 µM, first compound 10 µM
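Further: spheroids exposed to compounds for seven days.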
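Wherever viability, T/C is given: 100% = DMSO vehicle control viability.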

SMILES: Cn1ncc(Cl)c1-c1cc(C(=O)NC(CN)Cc2cccc(F)c2)sc1Cl (configuration not stated) + CC(Nc1ncnc2nc[nH]c12)c1cc2cccc(Cl)c2c(=O)n1-c1ccccc1
- IC50 [1]: 777 nM
- IC50 [2]: 984 nM
- IC50 [3]: 1100 nM
- IC50 [4]: 1080 nM
- IC50 [5]: 790 nM
- IC50 [6]: 785 nM
- viability, T/C [7]: 86.5%
- viability, T/C [8]: 82.8%
- viability, T/C [9]: 73.1%
- viability, T/C [10]: 43.1%
- viability, T/C [11]: 34.9%
- viability, T/C [12]: 30.9%
- viability, T/C [13]: 108%
- viability, T/C [14]: 89.5%
- viability, T/C [15]: 84.4%
- viability, T/C [16]: 48.6%
- viability, T/C [17]: 32.2%
- viability, T/C [18]: 34.8%
- viability, T/C [19]: 97.5%
- viability, T/C [20]: 92.8%
- viability, T/C [21]: 70.8%
- viability, T/C [22]: 54.9%
- viability, T/C [23]: 32.2%
- viability, T/C [24]: 30.9%
- viability, T/C [25]: 101%
- viability, T/C [26]: 88.2%
- viability, T/C [27]: 77.9%
- viability, T/C [28]: 47.5%
- viability, T/C [29]: 38.8%
- viability, T/C [30]: 29%
- viability, T/C [31]: 107%
- viability, T/C [32]: 86.1%
- viability, T/C [33]: 62.4%
- viability, T/C [34]: 49.3%
- viability, T/C [35]: 32.5%
- viability, T/C [36]: 30.8%
- viability, T/C [37]: 87%
- viability, T/C [38]: 78.1%
- viability, T/C [39]: 67.8%
- viability, T/C [40]: 46.5%
- viability, T/C [41]: 27.7%
- viability, T/C [42]: 25.8%

SMILES: C=CC(=O)N1CCN(c2nc(=O)n(-c3c(C)ccnc3C(C)C)c3nc(-c4c(O)cccc4F)c(F)cc23)C(C)C1 (configuration not stated) + Cc1nc(NC(=O)N2CCCC2C(N)=O)sc1-c1ccnc(C(C)(C)C(F)(F)F)c1
- IC50 [1]: > 10000 nM
- IC50 [2]: > 10000 nM
- IC50 [3]: > 10000 nM
- IC50 [4]: > 10000 nM
- IC50 [5]: > 10000 nM
- IC50 [6]: < 31.6 nM
- viability, T/C [7]: 99.9%
- viability, T/C [8]: 101%
- viability, T/C [9]: 96.5%
- viability, T/C [10]: 106%
- viability, T/C [11]: 99.2%
- viability, T/C [12]: 96%
- viability, T/C [13]: 94.4%
- viability, T/C [14]: 94%
- viability, T/C [15]: 114%
- viability, T/C [16]: 86.3%
- viability, T/C [17]: 94.3%
- viability, T/C [18]: 92.8%
- viability, T/C [19]: 91.2%
- viability, T/C [20]: 90.2%
- viability, T/C [21]: 93.1%
- viability, T/C [22]: 98.8%
- viability, T/C [23]: 101%
- viability, T/C [24]: 101%
- viability, T/C [25]: 89%
- viability, T/C [26]: 89.4%
- viability, T/C [27]: 88.2%
- viability, T/C [28]: 97.3%
- viability, T/C [29]: 96.7%
- viability, T/C [30]: 89.5%
- viability, T/C [31]: 67.5%
- viability, T/C [32]: 56.5%
- viability, T/C [33]: 51.9%
- viability, T/C [34]: 67.5%
- viability, T/C [35]: 67.9%
- viability, T/C [36]: 58.5%
- viability, T/C [37]: 35.2%
- viability, T/C [38]: 32.4%
- viability, T/C [39]: 35.7%
- viability, T/C [40]: 32.9%
- viability, T/C [41]: 37.9%
- viability, T/C [42]: 34.2%

SMILES: CC(=O)c1c(C)c2cnc(Nc3ccc(N4CCNCC4)cn3)nc2n(C2CCCC2)c1=O + CC(Nc1ccc2c(c1)OCCn1cc(N3C(=O)OCC3C(F)F)nc1-2)C(N)=O
- IC50 (curve of first compound, second compound 0.00316 µM): > 100 nM
- IC50 (curve of first compound, second compound 0.01 µM): > 100 nM
- IC50 [1]: > 100 nM
- IC50 [2]: > 100 nM
- IC50 [3]: > 100 nM
- IC50 [4]: > 100 nM
- viability, T/C (second compound 0.00316 µM, first compound 0.000316 µM): 98.7%
- viability, T/C (second compound 0.00316 µM, first compound 0.001 µM): 97.9%
- viability, T/C (second compound 0.00316 µM, first compound 0.00316 µM): 107%
- viability, T/C (second compound 0.00316 µM, first compound 0.01 µM): 102%
- viability, T/C (second compound 0.00316 µM, first compound 0.0316 µM): 110%
- viability, T/C (second compound 0.00316 µM, first compound 0.1 µM): 102%
- viability, T/C (second compound 0.01 µM, first compound 0.000316 µM): 94.2%
- viability, T/C (second compound 0.01 µM, first compound 0.001 µM): 100%
- viability, T/C (second compound 0.01 µM, first compound 0.00316 µM): 113%
- viability, T/C (second compound 0.01 µM, first compound 0.01 µM): 98.5%
- viability, T/C (second compound 0.01 µM, first compound 0.0316 µM): 124%
- viability, T/C (second compound 0.01 µM, first compound 0.1 µM): 99.3%
- viability, T/C (second compound 0.0316 µM, first compound 0.000316 µM): 105%
- viability, T/C (second compound 0.0316 µM, first compound 0.001 µM): 114%
- viability, T/C (second compound 0.0316 µM, first compound 0.00316 µM): 108%
- viability, T/C (second compound 0.0316 µM, first compound 0.01 µM): 110%
- viability, T/C [7]: 103%
- viability, T/C [8]: 103%
- viability, T/C (second compound 0.1 µM, first compound 0.000316 µM): 108%
- viability, T/C (second compound 0.1 µM, first compound 0.001 µM): 102%
- viability, T/C (second compound 0.1 µM, first compound 0.00316 µM): 102%
- viability, T/C (second compound 0.1 µM, first compound 0.01 µM): 110%
- viability, T/C [13]: 103%
- viability, T/C [14]: 113%
- viability, T/C (second compound 0.316 µM, first compound 0.000316 µM): 82.8%
- viability, T/C (second compound 0.316 µM, first compound 0.001 µM): 79.5%
- viability, T/C (second compound 0.316 µM, first compound 0.00316 µM): 79.4%
- viability, T/C (second compound 0.316 µM, first compound 0.01 µM): 86.1%
- viability, T/C [19]: 83.8%
- viability, T/C [20]: 90.6%
- viability, T/C (second compound 1 µM, first compound 0.000316 µM): 60.8%
- viability, T/C (second compound 1 µM, first compound 0.001 µM): 57.5%
- viability, T/C (second compound 1 µM, first compound 0.00316 µM): 58.3%
- viability, T/C (second compound 1 µM, first compound 0.01 µM): 55.4%
- viability, T/C [25]: 61.6%
- viability, T/C [26]: 56.5%

SMILES: Cn1ncnc1[C@H]1c2n[nH]c(=O)c3cc(F)cc(c23)N[C@@H]1c1ccc(F)cc1
- viability, T/C (compound 0.001 µM): 94.9% [middle of 4 runs]
- viability, T/C (compound 0.00316 µM): 94.7% [middle of 4 runs]
- viability, T/C (compound 0.01 µM): 104% (2×) and 88.8% and 114%
- viability, T/C (compound 0.0316 µM): 95.9% [middle of 4 runs]
- viability, T/C (compound 0.1 µM): 89% [middle of 4 runs]
- IC50 (curve of compound): > 100 nM
